# Data taken from paper PMC6271731, “Multitarget Molecular Hybrids of Cinnamic Acids” (Molecules, 2014).
# Several values for one entry are separate records, joined by “and”; a condition that tells them apart may be missing. Equal entries are not always repeated.
# How the values were obtained:
# [1] = test system: carrageenin-induced rat paw oedema; assay: Inhibition of the carrageenin-induced rat paw oedema; type: in vivo, Fisher-344 rats; settings: 0.01 mmol/1 kg, i.p., 3.5 h after carrageenin
# Method: Anti-inflammatory tests were conducted on Fisher-344 inbred rats of ca. 200 g body weight whereas antinociception and motor and sensory functions after sciatic nerve crash were performed on Wistar rats. Both sexes were used. Females pregnant were excluded. Each group was composed of 6 animals. The animals, which have been bred in our laboratory, were housed under standard conditions and received a diet of commercial food pellets and water ad libitum during the maintenance. Our studies were carried out in accordance with recognised guidelines on animal experimentation.
# The tested compounds 0.01 mmol/kg body weight were suspended in water with few drops of Tween 80 and ground in a mortar before use. Controls received the liquid vehicle only. All the in vivo experiments were repeated at least in triplicate and were subjected to statistic analysis using the student’s t-test.
# Oedema was induced in the right hind paw of Fisher 344 rats by the intradermal injection of 0.1 mL 2% carrageenin in water. Each group was composed of 6 animals which they were entirely fasted during the experiment period. The tested compounds 0.01 mmol/kg body weight, were given intraperitoneally simultaneously with the carrageenin injection. The rats were euthanized 3.5 h after carrageenin injection. The difference between the weight of the injected and not-injected paws was calculated for each animal. The change in paw weight was compared with that in control animals (treated with water) and expressed as a percent inhibition of the oedema (ICPE % values in Table 1). Indomethacin 0.01 mmol/kg was used as reference compound. ICPE % are the mean values from two different experiments with a standard error of the mean less than 10%.
# esterase = assay: In vitro esterase activity on hybrids; type: in vitro ADME; settings: 1 mM, phosphate buffer pH 7.8, 37 °C, 90 min and 24 h
# Method: Representative hybrid molecules are subjected to an esterase activity in vitro. 100 μL of 1 mg/mL 0.001 N hydrochloric acid of esterase solution was added to 1,250 μL of phosphate buffer (0.1 M) pH 7.8 including the tested compounds (150 μL in DMSO, final concentration 1 mM) and incubated at 37 °C for 90 min. The incubated solution was allowed to set at room temperature. Then, the absorption was measured at 256 nm. The measurement was repeated after 24 h of incubation at 37 °C.
structure (smiles),measurement,setting,value
"CC(=O)Nc1ccc(OC(=O)/C=C/c2cccc(Oc3ccccc3)c2)cc1 [Compound 2a, (E)-4-Acetamidophenyl 3-(3-phenoxyphenyl)acrylate]",% ICPE (carrageenin-induced rat paw oedema inhibition),[1],36.5% and 36.5 ** %
same,hydrolysis of the ester group by esterase,esterase,hydrolyzed
